Results from patent publication US6069167A, “Use of antioxidant agents to treat cholestatic liver disease” (priority 1997, dated 2000).

Tests used:
[1] = tested on: hepatic mitochondria; assay: Lipid-conjugated dienes of hepatic mitochondria (lipid peroxidation); assay type: in vivo, male Sprague-Dawley rats
Procedure: Hepatic Mitochondria Isolation
Mitochondria were isolated from 10 grams of fresh liver from individual rats by a modification of a previously described method^27. Briefly, the liver was gently homogenized in a loose-fitting Potter-Elvehjm homogenizer in buffer containing 225 mM mannitol, 70 mM sucrose, 3 mM KH2 PO4, 2mM EDTA, 0.1% BSA, 5 mM MgCl2 (pH 7.0), filtered through cheesecloth and centrifuged at 400g×10 minutes. The supernatant was centrifuged at 10,000g for 10 minutes. The supernatant was aspirated and the pellet resuspended and centrifuged at 10,000g for 10 minutes. The resulting mitochondrial pellet was resuspended in 15 ml of buffer, divided into three tubes and added to digitonin (Sigma Chemical Company, St Louis, Mo., 0.29 mg for each gram of original liver) on wet ice×20 minutes, in order to minimize any contamination by lysosomes^28. The resulting mitochondrial preparation was washed two times in the original buffer and centrifuged at 10,000g for 10 minutes. Samples of the pellet were taken for enzyme marker analysis. Two more washes were then performed using a buffer containing 50 mM MOPS/100 mM KCI, yielding the final mitochondrial pellet.
Fresh mitochondria were analyzed for lipid peroxidation as an index of oxidant damage by the lipid-conjugated diene method of Recknagel and Ghoshal^35 with the modification of Bacon et al^36. Briefly, lipids were extracted from mitochondria pellets with chloroform and methanol (2:1, vol/vol), and the lipid in chloroform was dried under a stream of oxygen-free nitrogen^27. The dried lipid was redissolved in 1.5 ml of spectrophotometric grade cyclohexane. Absorbance from 220 to 275 nm was recorded against a cyclohexane blank on a Lambda 2 UV/is Spectrometer (Perkin-Elmer Corp., Norwalk, Conn.). Lipid concentration was approximately 0.5 mg/mi of cyclohexane. After the UV measurements, a 250 μl aliquot from each sample was analyzed for total lipid content by the method of Chiang et al.^37, and absorbance measurements were normalized to a denominator of 1.0 mg lipid per ml of cyclohexane. Lipid peroxidation was estimated by calculating the difference in absorption at 233 nm (the peak absorbance for conjugated dienes) between each rat and the mean of the values from control rats.
Because serum AST and ALT concentrations peaked at 4 hours, further evaluation of liver injury was performed at that time point Total concentrations (conjugated+free bile acids) of individual bile acids were measured in serum obtained at 4 hours by gas chromatography-mass spectroscopy (GC-MS), as previously described^30. Briefly, after serum samples were extracted with the addition of the internal standard 7-alpha, 12-alpha, dihydroxy-5 beta cholanic acid, trimethylsilyl esterification was performed. Individual bile acids were then quantified by GC or GC-MS using a Hewlett-Packard 5790 flame ionization detector equipped with a 30 meter DB-1 capillary column with internal diameter of 0.25 mm and a film thickness of 0.25 micrometers (J & W Scientific, Folsom, Calif.). For GC-MS measurements, a Hewlett-Packard 5970-A mass selective detector operating in selective ion monitoring mode was used. Results were expressed as μmol/L for each individual bile acid.
Rats were divided into two treatment groups. One group was pretreated with parenteral Vitamin E (all-rac-alpha tocopherol, Ephynal, Hoffmann-LaRoche,Nutley, N.J.). The other group was not pretreated. […]

[2] = tested on: lactate dehydrogenase (LDH); assay: Interference of TCDC with the LDH assay (total LDH activity of hepatocyte lysate); assay type: cell-based, rat; details: 10×10^6 hepatocytes incubated 4 hours with or without TCDC at 1000 μmol/L
Procedure: Adult male Sprague Dawley rats (250-275 grams body weight) were obtained from Sasco, Inc. (Omaha, Nebr.). They were maintained on Purina lab chow (Ralston Purina Co., Chicago, Ill.) for 2-3 weeks and housed in polyethylene cages with stainless steel tops on a […]. All rats received humane care in compliance with the guidelines of the Committee on Laboratory Animal Research of the University of Colorado Health Sciences Center. Hepatocytes were isolated using a collagenase reperfusion technique that was a modification^24 of the method of Berry and Friend^25. After administration of intraperitoneal anesthesia (50 mg/kg body weight), each rat liver was perfused in situ via the portal vein with Krebs-Henseleit buffer containing a mixture of 17 amino acids as previously described^24 under a 9% O2 /5% CO2 /86% N2 atmosphere until perfusate was blood free (after approximately 25-50 ml of perfusate infusion). […] Initial cell viability measured by the trypan blue exclusion method^43 was above 95%. […]
Hepatocyte injury was assessed by the percentage of total cellular lactate dehydrogenase (LDH) release into the buffer medium. LDH was analyzed by measuring the rate of decrease in absorbance at 340 nm during reduction of pyruvate using a diagnostic kit supplied by Sigma Diagnostics (St Louis, Mo.). […]

[3] = tested on: bile flow; details: continuous jugular vein TCDC infusion 0.4 to 0.6 μmol/min/100 gram over 60 minutes; cited from earlier work

For `C[C@H](CCC(=O)NCCS(=O)(=O)O)[C@H]1CC[C@H]2[C@@H]3[C@H](O)C[C@@H]4C[C@H](O)CC[C@]4(C)[C@H]3CC[C@]12C` [TCDC, taurochenodeoxycholic acid], the “Hepatic mitochondrial lipid-conjugated dienes, change versus vehicle” value ([1]; 4 h after TCDC 10 μmol/100 gram) was “significant elevations”, the Lipid-conjugated dienes ([1]; Control/TCDC, n = 13, 4 h) was 0.24 ± 0.02 delta abs. 233 nm/mg lipid and the “Total hepatocyte LDH activity in the lysate” value [2] was 90-96 units. For the same molecule, the “Bile flow and hepatic bile secretion” value [3] was “marked reduction in bile flow and of hepatic bile secretion”.
